Where a SMILES comes first, the peptide text is derived from it. The star is where a group is joined. Palmitoyl = CCCCCCCCCCCCCCCC(=O)*
Assays:
human platelets (ADP) = assay: Human platelet aggregation, ADP; assay type: cell-based; details: 20 μM ADP
Protocol: A, Depiction of the mechanism of action of the cell-penetrating PZ-128 pepducin compound targeting the third intracellular loop (red) of PAR1. B, The NMR structure of PZ-128 was determined by simulated annealing methods using 210 distance restraints and included restraints to the proximal 3 hydrocarbons of the lipid. […] D, PZ-128 inhibits PAR1-dependent platelet aggregation. Gel filtered human platelets were treated with various concentrations of PZ-128 and then challenged with the PAR1 agonist SFLLRN (2.5 μM), 20 μM ADP, 200 μM AYPGKF or 1 mg/ml Ristocetin. E, Human platelets were treated with 3 μM PZ-128, 3 μM RWJ-56110, or 5% dextrose vehicle before the addition of various concentrations of thrombin (n=3-5).
PZ-128 also markedly right-shifted thrombin-induced aggregation by 5-fold. By comparison, the small molecule RWJ-56110 which antagonizes PAR1 at the extracellular ligand-binding site gave a 2-fold right shift in the thrombin activation curve of human platelets.
Whole blood from healthy donors was collected into a 30 ml syringe containing sodium citrate (0.4% vol/vol final). Platelets were isolated from platelet rich plasma (PRP) using Sepharose 2B columns in modified PIPES buffer.

PAR1 = assay: Guinea pig ex vivo platelet aggregation to SFLLRN after iv infusion; assay type: in vivo; details: 3 and 6 mg/kg, 10 min iv infusion, 15 min time point, 2.5 μM SFLLRN
Protocol: (§2) PZ-128 or 5% dextrose USP vehicle was infused for 10 min into the jugular vein of male and female guinea pigs (0.55-0.65 kg). A-C, At the 15 min time point, whole blood was collected by cardiac puncture in 100 μg/ml PPACK/4% Na-citrate (final) anti-coagulant and platelet rich plasma (PRP) prepared and aggregation measurements were performed. […] B-C, PRP obtained at the 15 min time point after infusion with vehicle, 3 mg/kg PZ-128 or 6 mg/kg PZ128 was challenged with 2.5 μM SFLLRN, 20 μM ADP or 20 μM thromboxane mimetic, U46119. Individual data points (n=3) are overlayed on bar graphs depicting mean±SD. […] Data in B-D were analyzed by the non-parametric Kruskal-Wallis test with the Dunn's multiple pairwise comparison post-test.
(§3) PZ-128 micelles were delivered by internal jugular vein infusions over 10 min.
(§4) Guinea pigs weighing 600-650 g were used for platelet aggregation experiments. PZ-128 micelles (3 or 6 mg/kg) were administered by a 10 min intravenous infusion, and blood was collected by cardiac puncture into sodium citrate (0.4% vol/vol final) 5 minutes after cessation of the infusion. PRP was prepared and PPACK added to a final concentration of 100 μg/ml. PRP was calcified with 2.5 mM CaCl2 and aggregation was performed as described above.

[1] = test system: guinea pig platelets (ADP); assay: Guinea pig ex vivo platelet aggregation to ADP after iv infusion; assay type: in vivo; details: 3 or 6 mg/kg iv, 20 μM ADP
Protocol: as §2, §3, §4

PAR4 = assay: Baboon ex vivo platelet aggregation, AYPGKF (PAR4); assay type: in vivo; details: any dose, any time point
Protocol: A-C, Male baboons (10-12 kg) were administered 1, 3 or 6 mg/kg PZ-128, or 5% dextrose USP vehicle by iv infusion and blood collected into 100 μg/ml PPACK anticoagulant at 0, 1, 2, 6, or 24 h time points. Light transmission platelet aggregometry was performed with platelet rich plasma with the indicated agonists (SFLLRN for PAR1, AYPGKF for PAR4 and ADP for P2Y12 and P2Y1). Data are reported as mean±SD (n=3-7) relative to time 0 controls (0%) and were analyzed by repeated measures one-way ANOVA with Bonferroni post-test correction; *P<0.05, **P<0.01 relative to time 0. Global P values were >0.05 for 1 mg/kg, 0.004 for 3 mg/kg, <0.0001 for 6 mg/kg. D, Pharmacokinetics of 3 and 6 mg/kg 45-min iv infusions of PZ-128 in male baboons. Plasma PZ-128 levels were measured by LC/MS/MS at 9 sequential time points: baseline, 15 min, 30 min, 1 h, 2 h, 4 h, 8 h, 24 h and 48 h after the start of infusion. Open symbols indicated plasma concentrations that were under the measurement threshold (5 ng/ml).
The anti-platelet effects of PZ-128 micelles were next examined in baboons at various time points after receiving different doses of intravenous infusions. […]
(§1) Non-terminal thrombosis and platelet aggregation studies were performed on 12 healthy male baboons (Papio anubis) weighing 9-12 kg at the Oregon National Primate Research Center (ONPRC). […] Platelet counts and hematocrit were measured immediately. […]

[2] = test system: baboon arterial thrombosis (platelet deposition); assay: Baboon arterial-venous shunt Dacron graft thrombosis; assay type: in vivo, baboon (Papio anubis)
Protocol: 10-14 kg baboons were administered 3 mg/kg or 6 mg/kg PZ-128 by a 45 min iv infusion versus 5% dextrose vehicle (n=2-6). A, Net platelet accumulation was measured during the first 60 minutes of thrombus growth on a femoral arterio-venous Dacron graft (4 mm ID) inserted between silicone rubber tubing segments comprising a high-flow shunt. Blood flow was maintained at 100 ml/min by distal clamping the shunt. Autologous platelets were radiolabeled with indium-111 (1 mCi), and reinjected into the animals before thrombosis experiments. B, Deposition of platelets (mean±SD) was quantified in the head plus tail regions of the thrombus by 111Indium-labeled platelet imaging with 5-minute data acquisition periods starting at 60 min after initiation of the infusion. Statistical significance was determined using a variance stabilizing LN (natural log) transformation and a repeated measures mixed effects model with an autoregressive covariance structure. Subjects (individual baboons) were included in the model as a random effect. P=0.606 for 3 mg/kg vs vehicle and P=0.0028 for 6 mg/kg vs vehicle.
Baboon arterial thrombosis experiments were conducted to determine whether the PZ-128 micelles had the potential to inhibit arterial thrombosis in primates. An arterial-venous shunt equipped with a Dacron vascular graft with an internal lumen diameter of 4 mm at a high flow rate of 100 ml/min was used. Thrombogenesis was assessed by measuring platelet content of the head and tail regions of the developing thrombus (FIG. 4A) and quantified by ^111Indium-labeled platelet imaging over 60 min. PZ-128 micelles at a dose of 1 mg/kg had no effect on platelet-thrombus deposition in the baboon.
as §1

[3] = Bleeding time, platelet counts and hematocrit in baboons; assay type: in vivo; details: baboon; all doses tested (1-6 mg/kg)
Protocol: Whether PZ-128 had any adverse effects on hemostasis or coagulation indices in baboons and monkeys was evaluated. At all doses tested (1-6 mg/kg), PZ-128 micelles had no effect on bleeding time, platelet counts or hematocrit in baboons (Table 2).
Non-terminal thrombosis and platelet aggregation studies were performed on 12 healthy male baboons (Papio anubis) weighing 9-12 kg at the Oregon National Primate Research Center (ONPRC). […] Whole blood (10 ml) was collected into PPACK at a final concentration of 100 μg/ml just prior to infusion (baseline) and 15 min to 24 h after the PZ-128 micelle infusion was terminated. Platelet counts and hematocrit were measured immediately. PRP was prepared from whole blood and platelet aggregation performed as described above. Bleeding time (BT) measurements were performed on the shaved volar surface of the forearm using the standard template method.

[4] = PT, aPTT, bleeding and plasma levels in cynomolgus monkeys after daily iv infusions; assay type: in vivo; details: cynomolgus monkey
Protocol: PZ-128 micelles were also administered daily for 4 days to adult male and female cynomolgus monkeys with 1 h iv infusions of 3 mg/kg, 10 mg/kg and 30 mg/kg PZ-128. Coagulation parameters prothrombin time (PT) and activated partial thromboplastin time (aPTT) were unaffected in all monkeys at 3-30 mg/kg PZ-128 at either day 1 and day 5 as compared to baseline or vehicle-treated animals (Table 2).
PZ-128 micelles (0, 3, 10 or 30 mg/kg) were administered intravenously to 2.5-4.5 kg male and female cynomolgus monkeys by infusion over 1 h at MPI Laboratories (Mattawan, Mich.). Peripheral venous blood was collected from cynomolgus monkeys into K3EDTA anticoagulant at baseline (Day −8) and at two time points (Day 1 and Day 5) after daily 1-h intravenous PZ-128 micelle infusions on days 1-4. PT and aPTT were analyzed immediately on a MLA-800 coagulation analyzer.

[5] = 3-30 mg/kg, 1 h iv infusion daily for 4 days, day 1 and day 5

CCCCCCCCCCCCCCCC(=O)N[C@@H](CCCCN)C(=O)N[C@@H](CCCCN)C(=O)N[C@@H](CO)C(=O)N[C@@H](CCCNC(=N)N)C(=O)N[C@@H](C)C(=O)N[C@@H](CC(C)C)C(=O)N[C@@H](Cc1ccccc1)C(N)=O [PZ-128, palmitate-KKSRALF-NH2] (Palmitoyl-KKSRALF-NH2)
Inhibitory activity against ADP aggregation (human platelets (ADP)): no inhibitory activity
Inhibition of ex vivo platelet aggregation to SFLLRN (PAR1): significant, dose-dependent inhibition
Effect on ex vivo aggregation to ADP [1]: no effect
Inhibition of AYPGKF (PAR4) response ex vivo (PAR4): no inhibition
Effect on platelet-thrombus deposition ([2]; 1 mg/kg): no effect
Effect against platelet arterial thrombus formation vs vehicle ([2]; 3 mg/kg iv infusion, P=0.606): not significant
Effect against platelet arterial thrombus formation vs vehicle ([2]; 6 mg/kg iv infusion, P=0.0028): significant protective effect
Effect on bleeding time, platelet counts or hematocrit [3]: no effect
Cmax ([4]; both sexes, plasma, up to 30 mg/kg iv infusion): > 200 µM
Spontaneous, venous access, or retinal bleeding ([4]; 3-30 mg/kg daily iv): No spontaneous, venous access, or retinal bleeding was observed
Activated partial thromboplastin time (aPTT) [4, 5]: unaffected
Prothrombin time (PT) [4, 5]: unaffected

Source: patent US9878054B2, “Polypeptide and lipophilic moiety conjugate compositions, formulations, and uses related thereto” (Tufts Medical Center, Inc., priority 2012, dated 2018)
